The numbers were not newly measured in patent US20220409549A1, “ORAL PRODUCT TABLET AND METHOD OF MANUFACTURE” (NICOVENTURES TRADING LIMITED, priority 2021, published 2022), which cites them from elsewhere.

Like-named read-outs stand apart in the source and are kept apart here.

The conditions of data set [1]: for solubility: fats, alcohols, water.
For data set [2] the following is noted: for logP: organic acids of Table 1, octanol and water.
The conditions of data set [3]: converts via isomerization into trans-bixin.

Regarding `CC(/C=C/C=C(C)/C=C/C(=O)O)=C\C=C\C=C(C)\C=C\C=C(C)\C=C\C(=O)O` (stereo in doubt) [norbixin, (2E,4E,6E,8E,10E,12E,14E,16E,18E)-4,8,13,17-tetramethylicosa-2,4,6,8,10,12,14,16,18-nonaenedioic acid], in data set [1], the solubility result is reported as “water soluble”. In the case of `C=C(C)[C@@H]1CCC(C)=C[C@H]1c1c(O)cc(CCCCC)cc1O` [CBD, cannabidiol, reference compound], the “solubility in an aqueous environment (e.g., saliva)” value in data set [1] was “insoluble”. In addition, the logP value entry in data set [2] (CBD) is recorded as “about 6.5”. For the compound `COC(=O)/C=C/C(C)=C\C=C\C(C)=C\C=C\C=C(C)\C=C\C=C(C)\C=C\C(=O)O` [bixin], in data set [1], the solubility result is “soluble in fats and alcohols but insoluble in water”. Also, the “chemical stability when isolated” value in data set [3] is reported as “chemically unstable”. Take `CC(C)[C@@H]1CC[C@@H](C)C[C@H]1OC(=O)CCC(=O)O` [monomenthyl succinate]: the logP in data set [2] is on record as 3. Consider `CN1CCCC1c1cccnc1` (centres unmarked) [nicotine, reference compound], for which the partitioning into octanol entry in data set [2] (acidic pH values, about 6.5 to about 4, protonated form) is listed as “lower partitioning into octanol”; in data set [2] (alkaline pH values, about 7.5 to about 9, free base form), “high partitioning into octanol”. For ethyl benzoic acid, the logP in data set [2] is on record as 2.9. As for isopropyl benzoic acid, in data set [2], the logP is given as 3.5. Regarding tocopherol succinate, the log partition coefficient (logP) in data set [2] is given as 10.2.
